Data taken from ChEMBL document CHEMBL5154856, “Targeting the tumor microenvironment by an enzyme-responsive prodrug of tubulin destabilizer for triple-negative breast cancer therapy with high safety” (Eur J Med Chem, 2022).
Blank lines part the entries; values can stand above or below the molecule they belong to. Activity calls are given as the source filed them. The rule behind the calls is not given here.

Legend:
HeLa [1] = test: Antiproliferative activity against human HeLa cells assessed as inhibition of cell growth incubated for 48 hrs by MTT assay; type: functional, cell-based
MDA-MB-231 [2] = test: Antiproliferative activity against human MDA-MB-231 cells assessed as inhibition of cell growth incubated for 48 hrs by MTT assay; type: functional, cell-based; settings: MDA-MB-231, 48 h
MCF7 [3] = test: Antiproliferative activity against human MCF7 cells assessed as inhibition of cell growth incubated for 48 hrs by MTT assay; type: functional, cell-based; settings: MCF7, 48 h
[4] = Acute toxicity in BALB/c mouse assessed as lethal dose administered intravenously as single dose and measured after 14 days; settings: in vivo, route iv, time 14 day
[5] = Acute toxicity in BALB/c mouse assessed as animal survival at 12.5 mg/kg, iv administered as single dose measured after 14 days; type: organism-based; settings: in vivo, time 14 day
[6] = Acute toxicity in BALB/c mouse assessed as animal survival at 25 mg/kg, iv administered as single dose measured after 14 days; type: organism-based; settings: in vivo, time 14 day
[7] = Acute toxicity in BALB/c mouse assessed as animal survival at 50 mg/kg, iv administered as single dose measured after 14 days; type: organism-based; settings: in vivo, time 14 day
[8] = Acute toxicity in BALB/c mouse assessed as animal survival at 70 mg/kg, iv administered as single dose measured after 14 days; type: organism-based; settings: in vivo, time 14 day
[9] = Acute toxicity in BALB/c mouse assessed as animal survival at 100 mg/kg, iv administered as single dose measured after 14 days; type: organism-based; settings: in vivo, time 14 day
[10] = Toxicity in nude mouse xenografted with human MDA-MB-231 cells assessed as pathological changes in kidney at 3.75 mg/kg, iv administered every 2 days for 14 days by H and E staining based assay; type: organism-based; settings: in vivo, 336 h, time 14 day
[11] = Toxicity in nude mouse xenografted with human MDA-MB-231 cells assessed as pathological changes in liver at 3.75 mg/kg, iv administered every 2 days for 14 days by H and E staining based assay; type: organism-based; settings: in vivo, 336 h, time 14 day
[12] = Toxicity in nude mouse xenografted with human MDA-MB-231 cells assessed as pathological changes in spleen at 3.75 mg/kg, iv administered every 2 days for 14 days by H and E staining based assay; type: organism-based; settings: in vivo, 336 h, time 14 day
MDA-MB-231 [13] = test: Antitumor activity against mouse xenografted with human MDA-MB-231 cells assessed as increase in tumor necrosis area at 3.75 mg/kg, iv administered every 2 days for 14 days by H and E staining based assay; type: functional, organism-based; settings: time 14.0 day
[14] = Toxicity in nude mouse assessed as effect on total protein level in serum at 3.75 mg/kg, iv administered qd for 3 days (reference value: 47.3 g/L); type: organism-based; settings: in vivo, 72 h, time 3 day
[15] = Toxicity in nude mouse assessed as effect on albumin level in serum at 3.75 mg/kg, iv administered qd for 3 days (reference value: 31.2 g/L); type: organism-based; settings: in vivo, 72 h, time 3 day
[16] = Toxicity in nude mouse assessed as effect on globulin level in serum at 3.75 mg/kg, iv administered qd for 3 days (reference value: 16.1 g/L); type: organism-based; settings: in vivo, 72 h, time 3 day
[17] = Toxicity in nude mouse assessed as effect on alanine aminotransferase level in serum at 3.75 mg/kg, iv administered qd for 3 days (reference value: 308 U/L); type: organism-based; settings: in vivo, 72 h, time 3 day
[18] = Toxicity in nude mouse assessed as effect on aspartate aminotransferase level in serum at 3.75 mg/kg, iv administered qd for 3 days (reference value: 424 U/L); type: organism-based; settings: in vivo, 72 h, time 3 day
[19] = Toxicity in nude mouse assessed as effect on total bilirubin level in serum at 3.75 mg/kg, iv administered qd for 3 days (reference value: 3.3 micromol/L); type: organism-based; settings: in vivo, 72 h, time 3 day
[20] = Toxicity in nude mouse assessed as effect on alkaline phosphatase level in serum at 3.75 mg/kg, iv administered qd for 3 days (reference value: 66 U/L); type: organism-based; settings: in vivo, 72 h, time 3 day
[21] = Toxicity in nude mouse assessed as effect on gamma-glutamyl transpeptidase level in serum at 3.75 mg/kg, iv administered qd for 3 days (Rvb < 2 U/L); type: organism-based; settings: in vivo, 72 h, time 3 day
[22] = Toxicity in nude mouse assessed as effect on white blood cell count at 3.75 mg/kg, iv administered qd for 3 days (reference value: 0.02 10^9/L); type: organism-based; settings: in vivo, 72 h, time 3 day
[23] = Toxicity in nude mouse assessed as effect on platelet count at 3.75 mg/kg, iv administered qd for 3 days (reference value: 21 10^9/L); type: organism-based; settings: in vivo, 72 h, time 3 day
[24] = Toxicity in nude mouse assessed as effect on mean corpuscular hemoglobin level at 3.75 mg/kg, iv administered qd for 3 days (reference value: 22.3 pg); type: organism-based; settings: in vivo, 72 h, time 3 day
[25] = Toxicity in nude mouse assessed as effect on mean corpuscular hemoglobin concentration at 3.75 mg/kg, iv administered qd for 3 days (reference value: 473 g/L); type: organism-based; settings: in vivo, 72 h, time 3 day
[26] = Toxicity in nude mouse assessed as effect on neutrophil level at 3.75 mg/kg, iv administered qd for 3 days (reference value: 7.40 %); type: organism-based; settings: in vivo, 72 h, time 3 day
[27] = Toxicity in nude mouse assessed as effect on eosinophil level at 3.75 mg/kg, iv administered qd for 3 days (reference value: 6 %); type: organism-based; settings: in vivo, 72 h, time 3 day
[28] = Toxicity in nude mouse assessed as effect on basophil level at 3.75 mg/kg, iv administered qd for 3 days (reference value: 11.70 %); type: organism-based; settings: in vivo, 72 h, time 3 day
[29] = Toxicity in nude mouse assessed as effect on lymphocyte level at 3.75 mg/kg, iv administered qd for 3 days (reference value: 60.90 %); type: organism-based; settings: in vivo, 72 h, time 3 day
[30] = Toxicity in nude mouse assessed as effect on monocytes level at 3.75 mg/kg, iv administered qd for 3 days (reference value: 37.10 %); type: organism-based; settings: in vivo, 72 h, time 3 day
[31] = Toxicity in nude mouse assessed as effect on platelet distribution width at 3.75 mg/kg, iv administered qd for 3 days (reference value: 20.2); type: organism-based; settings: in vivo, 72 h, time 3 day
[32] = Cardiotoxicity in nude mouse assessed as abnormal spikes at 5 mg/kg, iv administered once daily for 3 days by ECG analysis; type: toxicity, organism-based; settings: in vivo, 72 h, time 3 day
[33] = Cardiotoxicity in nude mouse assessed as prolonged QT intervals at 5 mg/kg, iv administered once daily for 3 days by ECG analysis; type: toxicity, organism-based; settings: in vivo, 72 h, time 3 day
[34] = Toxicity in nude mouse assessed as animal death at 5 mg/kg, iv administered 3 consecutive dosages; type: organism-based; settings: in vivo
SK-OV-3 [35] = test: cells; settings: Homo sapiens, SK-OV-3, 48 h
Description: Antiproliferative activity against human SK-OV-3 cells assessed as inhibition of cell growth incubated for 48 hrs by MTT assay

[36] = Chemical stability of compound at pH 7.4 in PBS buffer at 1 mg incubated for 48 hrs by HPLC analysis; type: physicochemical; settings: pH 7.4, 48 h
[37] = Chemical stability of compound at pH 7.4 in bovine serum at 1 mg incubated for 48 hrs by HPLC analysis; type: ADME, cell-free; settings: cattle, pH 7.4, 48 h
[38] = Stability of compound in phosphate buffer at pH 7.4 assessed as Escherichia coli beta-glucuronidase mediated compound cleavage at 1.2 mg measured after 10 mins by HPLC analysis; type: ADME; settings: pH 7.4, 10 min
HeLa [39] = test: Antiproliferative activity against human HeLa cells assessed as inhibition of cell growth incubated for 48 hrs in absence of beta-glucuronidase by MTT assay; type: functional, cell-based
MDA-MB-231 [40] = test: Antiproliferative activity against human MDA-MB-231 cells assessed as inhibition of cell growth incubated for 48 hrs in absence of beta-glucuronidase by MTT assay; type: functional, cell-based; settings: MDA-MB-231, 48 h
SK-OV-3 [41] = test: Antiproliferative activity against human SK-OV-3 cells assessed as inhibition of cell growth incubated for 48 hrs in absence of beta-glucuronidase by MTT assay; type: functional, cell-based; settings: SK-OV-3, 48 h
MCF7 [42] = test: Antiproliferative activity against human MCF7 cells assessed as inhibition of cell growth incubated for 48 hrs in absence of beta-glucuronidase by MTT assay; type: functional, cell-based; settings: MCF7, 48 h
HeLa [43] = test: Antiproliferative activity against human HeLa cells assessed as inhibition of cell growth incubated for 48 hrs in presence of beta-glucuronidase by MTT assay; type: functional, cell-based
MDA-MB-231 [44] = test: Antiproliferative activity against human MDA-MB-231 cells assessed as inhibition of cell growth incubated for 48 hrs in presence of beta-glucuronidase by MTT assay; type: functional, cell-based; settings: MDA-MB-231, 48 h
SK-OV-3 [45] = test: Antiproliferative activity against human SK-OV-3 cells assessed as inhibition of cell growth incubated for 48 hrs in presence of beta-glucuronidase by MTT assay; type: functional, cell-based; settings: SK-OV-3, 48 h
MCF7 [46] = test: Antiproliferative activity against human MCF7 cells assessed as inhibition of cell growth incubated for 48 hrs in presence of beta-glucuronidase by MTT assay; type: functional, cell-based; settings: MCF7, 48 h
[47] = Metabolic stability in rat liver microsomes assessed as half life at 10 mM measured up to 60 mins in presence of NADPH by LC-MS/MS analysis; type: ADME, Microsome
[48] = Metabolic stability in rat liver microsomes assessed as intrinsic clearance in microsomes at 10 mM measured up to 60 mins in presence of NADPH by LC-MS/MS analysis; type: ADME, Microsome; settings: read-out: CLH
[49] = Metabolic stability in rat liver microsomes assessed as intrinsic clearance in liver at 10 mM measured up to 60 mins in presence of NADPH by LC-MS/MS analysis; type: ADME, Microsome; settings: read-out: CLH
[50] = Metabolic stability in rat liver microsomes assessed as parent compound remaining at 10 mM measured up to 60 mins in presence of NADPH by LC-MS/MS analysis; type: ADME, Microsome; settings: read-out: Stability
[51] = Aqueous solubility of compound in PBS at pH 7.4 at 1 mg incubated for 10 mins by HPLC analysis; type: physicochemical
[52] = Stability of compound in phosphate buffer at pH 7.4 assessed as Escherichia coli beta-glucuronidase mediated compound cleavage at 1.2 mg measured after 2 hrs by HPLC analysis; type: ADME; settings: pH 7.4, 2 h

Structure (SMILES): COc1ccc([C@H]2[C@H](CO)C(=O)N2c2cc(OC)c(OC)c(OC)c2)cc1O (racemic)
IC50 (HeLa [1]): 5.9 nM | IC50 (MDA-MB-231 [2]): 11.9 nM | IC50 (MCF7 [3]): 14.8 nM | LD50 at 336 h [4]: 65 mg/kg | survival at 336 h [5]: 100% | survival at 336 h [6]: 100% | survival at 336 h [7]: 87.5% | survival at 336 h [8]: 37.5% | survival at 336 h [9]: 0% | Activity [10]: Non-Toxic | Activity [11]: Non-Toxic | Activity [12]: Non-Toxic | Activity (MDA-MB-231 [13]): Active | Activity [14]: 48.8 g/L | Activity [15]: 33.1 g/L | Activity [16]: 15.7 g/L | Activity [17]: 196 U/L | Activity [18]: 503 U/L | Activity [19]: 6.3 µmol/L | Activity [20]: 142 U/L | Activity [21]: < 2 U/L | Activity [22]: 0.05 10^9/L | Activity [23]: 99 10^9/L | Activity [24]: 23.5 pg | Activity [25]: 488 g/L | Activity [26]: 7.4% | Activity [27]: 18.2% | Activity [28]: 4.7% | Activity [29]: 66.7% | Activity [30]: 7.7% | Activity [31]: 18.5 | Activity [32]: Toxic | Activity [33]: Toxic | Activity [34]: Toxic

IC50 (HeLa [1]): 6.7 nM | IC50 (MDA-MB-231 [2]): 1.1 nM | IC50 (MCF7 [3]): 12.5 nM | IC50 (SK-OV-3 [35]): 3.8 nM
Structure (SMILES): COc1ccc([C@H]2[C@H](CF)C(=O)N2c2cc(OC)c(OC)c(OC)c2)cc1O

Stability [36]: Stable | Stability [37]: Stable | Stability [38]: Unstable | IC50 (HeLa [39]): > 50000 nM | IC50 (MDA-MB-231 [40]): > 50000 nM | IC50 (SK-OV-3 [41]): > 50000 nM | IC50 (MCF7 [42]): > 50000 nM | IC50 (HeLa [43]): 14.3 nM | IC50 (MDA-MB-231 [44]): 3.5 nM | IC50 (SK-OV-3 [45]): 22.6 nM | IC50 (MCF7 [46]): 15.5 nM | half-life [47]: > 2.42 h | microsomal CLint [48]: < 9.6 µL/min/mg | CLint scaled [49]: < 38 mL/min/kg | remaining at 1 h [50]: 84.6% | solubility at 10 min [51]: > 40 mg/mL
Structure (SMILES): COc1ccc([C@H]2[C@H](CF)C(=O)N2c2cc(OC)c(OC)c(OC)c2)cc1OCc1ccc(O[C@@H]2O[C@H](C(=O)O)[C@@H](O)[C@H](O)[C@H]2O)cc1

Stability [36]: Stable | Stability [37]: Stable | Stability [52]: Unstable
Structure (SMILES): COc1cc(C(=O)c2c(N)oc3c(OCc4ccc(O[C@@H]5O[C@H](C(=O)O)[C@@H](O)[C@H](O)[C@H]5O)cc4)c(OC)ccc23)cc(OC)c1OC

Stability [36]: Stable | Stability [37]: Stable | Stability [52]: Unstable
Structure (SMILES): COc1ccc([C@H]2[C@H](CO)C(=O)N2c2cc(OC)c(OC)c(OC)c2)cc1OCc1ccc(O[C@@H]2O[C@H](C(=O)O)[C@@H](O)[C@H](O)[C@H]2O)c([N+](=O)[O-])c1
